Measured values as given in paper PMC9779571, “Guanidine Derivatives Containing the Chalcone Skeleton Are Potent Antiproliferative Compounds against Human Leukemia Cells” (International Journal of Molecular Sciences, 2022).
Values joined by “and” are separate entries in the source; they are usually repeats but may differ in a detail not shown here. Identical values can stand only once.

Tests used:
U-937 cells = experiment: MTT cytotoxicity assay, U-937; type: cell-based; conditions: Homo sapiens, U-937, 72 h, means ± SEM
Description: (§1) U-937, HL-60, MOLT-3, NALM-6, and SK-MEL-1 cells were from DSMZ (German Collection of Microorganisms and Cell Cultures, Braunschweig, Germany). U-937/Bcl-2 cells were kindly provided by Dr. Jacqueline Bréard (INSERM U749, Faculté de Pharmacie Paris-Sud, Châtenay-Malabry, France). The U-937 is a pro-monocytic, human promyelocytic leukemia cell line that was isolated from a histiocytic lymphoma. HL-60 is a human acute myeloid leukemia cell line. MOLT-3 is a human acute lymphoblastic leukemia cell line. NALM-6 is a human B cell precursor leukemia. SK-MEL-1 is a human melanoma cell line growing singly or in clumps (occasional giant, polynucleated cell) in suspension. Cells were cultured in RPMI 1640 medium containing 10% (v/v) heat-inactivated fetal bovine serum, 100 μg/mL streptomycin, and 100 U/mL penicillin, incubated at 37 °C in a humidified atmosphere containing 5% CO2 as described. The doubling times of the cell lines were 24 h in HL-60, 30 h in U-937, U-937/Bcl-2, 40 h in MOLT-3 and NALM-6, and several days in SK-MEL-1 cells. Human peripheral blood mononuclear cells (PBMC) were isolated from heparin-anticoagulated blood of healthy volunteers by centrifugation with Ficoll-Paque Plus (GE Healthcare Bio-Sciences AB, Uppsala, Sweden). PBMC were also stimulated with phytohemagglutinin (2 µg/mL) for 48 h before the experimental treatment. The trypan blue exclusion method was used for counting the cells by a hemocytometer with 95% viability in all the experiments. Compounds were dissolved in dimethyl sulfoxide (DMSO) and kept under dark conditions at 25 °C. […] The cytotoxicity of the synthetic compounds was evaluated by colorimetric 3-(4,5-dimethyl-2-thiazolyl-)-2,5-diphenyl-2H-tetrazolium bromide (MTT) assay as previously described. Briefly, cells (5000 per well) were incubated with increasing concentrations of compounds for 72 h into a 96-well plate. Then, the supernatants were removed and 0.5 mg/mL MTT was added and incubated for 4 h at 37 °C. Sodium dodecyl sulfate (10% w/v) in 0.05 M HCl was added to solubilize the reaction products and the absorbance was measured at 570 nm with a reference wavelength of […] using an ELISA reader (Bio-Rad, Hercules, CA, USA). The IC50 values (concentrations inducing a 50% inhibition of cell viability) were determined graphically for each experiment by a nonlinear regression using the curve fitting routine implemented within the software Prism 5.0 (GraphPad, La Jolla, CA, USA).

HL-60 cells = experiment: MTT cytotoxicity assay, HL-60; type: cell-based; conditions: Homo sapiens, HL-60, 72 h, means ± SEM
Description: as §1

MOLT-3 cells = experiment: MTT cytotoxicity assay, MOLT-3; type: cell-based, human; conditions: Homo sapiens, MOLT-3, 72 h, means ± SEM
Description: as §1

NALM-6 cells = experiment: MTT cytotoxicity assay, NALM-6; type: cell-based, human; conditions: for IC50: Homo sapiens, NALM-6, 72 h, 72 h, MTT, means ± SEM
Description: as §1

U-937/Bcl-2 cells = experiment: MTT cytotoxicity assay, U-937/Bcl-2; type: cell-based, human; conditions: Homo sapiens, U-937, 72 h, means ± SEM
Description: as §1

SK-MEL-1 cells = experiment: MTT cytotoxicity assay, SK-MEL-1; type: cell-based, human; conditions: Homo sapiens, SK-MEL-1, 72 h, means ± SEM
Description: as §1

U-937 leukemia cells = experiment: Cell cycle and sub-G1 analysis by flow cytometry (propidium iodide); type: cell-based, human; conditions: 24 h; for fold increase of sub-G1 cells over control / %G1 / %G2-M / %S / %Sub-G1: 10 µM; for fold increase of sub-G1 cells over control: U-937; for %G1 / %G2-M / %S / %Sub-G1: U-937, means ± S.E.; for cell cycle arrest: U-937, 10 µM
Experimental: Cells (2.5 × 10^5) were centrifuged for 10 min at 500× g, washed with cold PBS, fixed with ice-cold 75% ethanol and stored at −20 °C overnight. Samples were then centrifuged at 500× g for 10 min at 4 °C, washed with PBS, resuspended in 200 μL of PBS containing 100 μg/mL RNase and 50 μg/mL propidium iodide and incubated for 1 h in the dark. The DNA content was analyzed by flow cytometry with a BD FACSVerse^TM cytometer (BD Biosciences, San Jose, CA, USA). Apoptosis was also evaluated by flow cytometric analysis of double-staining annexin V-FITC and propidium iodide cells as previously described.

[1] = system: six human cancer cell lines; experiment: MTT cytotoxicity assay, all cell lines assayed (summary statements); type: cell-based; conditions: 72 h, MTT
Description: U-937, HL-60, MOLT-3, NALM-6, and SK-MEL-1 cells were from DSMZ (German Collection of Microorganisms and Cell Cultures, Braunschweig, Germany). U-937/Bcl-2 cells were kindly provided by Dr. Jacqueline Bréard (INSERM U749, Faculté de Pharmacie Paris-Sud, Châtenay-Malabry, France). The U-937 is a pro-monocytic, human promyelocytic leukemia cell line that was isolated from a histiocytic lymphoma. HL-60 is a human acute myeloid leukemia cell line. MOLT-3 is a human acute lymphoblastic leukemia cell line. NALM-6 is a human B cell precursor leukemia. SK-MEL-1 is a human melanoma cell line growing singly or in clumps (occasional giant, polynucleated cell) in suspension. Cells were cultured in RPMI 1640 medium containing 10% (v/v) heat-inactivated fetal bovine serum, 100 μg/mL streptomycin, and 100 U/mL penicillin, incubated at 37 °C in a humidified atmosphere containing 5% CO2 as described. […] The cytotoxicity of the synthetic compounds was evaluated by colorimetric 3-(4,5-dimethyl-2-thiazolyl-)-2,5-diphenyl-2H-tetrazolium bromide (MTT) assay as previously described. […] Sodium dodecyl sulfate (10% w/v) in 0.05 M HCl was added to solubilize the reaction products and the absorbance was measured at 570 nm with a reference wavelength of […] using an ELISA reader (Bio-Rad, Hercules, CA, USA). […]

Compound | IC50 (U-937 cells) [µM] | IC50 (HL-60 cells) [µM] | IC50 (MOLT-3 cells) [µM] | IC50 (NALM-6 cells) [µM] | IC50 (U-937/Bcl-2 cells) [µM] | IC50 (SK-MEL-1 cells) [µM] | fold increase of sub-G1 cells over control (U-937 leukemia cells) | %G1 (U-937 leukemia cells) [%] | %G2-M (U-937 leukemia cells) | %S (U-937 leukemia cells) [%] | %Sub-G1 (U-937 leukemia cells) | cell cycle arrest (U-937 leukemia cells) | cytotoxicity against the cancer cell lines assayed [1] | increase in cytotoxicity on substitution of p-tosyl-sulfonyl group (6b) by phenyl group (NALM-6 cells; NALM-6, IC50 ratio 6b vs 6h)
[N-]=[N+]=Nc1ccc(/C=C/C(=O)c2c(O)cccc2OCc2ccccc2)cc1 [Compound 3] | > 30 | > 30 | 7.4 ± 0.4 | 11.6 ± 1.6 | > 30 | > 30 | – | – | – | – | – | – | – | –
Cc1ccc(S(=O)(=O)NC(=Nc2ccc(/C=C/C(=O)c3c(O)cccc3OCc3ccccc3)cc2)NC(C)C)cc1 [Compound 6a] | 11.4 ± 6.5 | 3.7 ± 1.6 | 2.9 ± 1.1 | 2.9 ± 0.5 | 2.9 ± 0.2 | > 30 | – | – | – | – | – | – | – | –
Cc1ccc(S(=O)(=O)NC(=Nc2ccc(/C=C/C(=O)c3c(O)cccc3OCc3ccccc3)cc2)N(C(C)C)C(C)C)cc1 [Compound 6b] | 18.5 ± 9.6 | 20.5 ± 9.5 | 2 ± 0.7 | 27 ± 0.8 | 11.7 ± 7 | > 30 | – | – | – | – | – | – | – | –
Cc1ccc(S(=O)(=O)NC(=Nc2ccc(/C=C/C(=O)c3c(O)cccc3OCc3ccccc3)cc2)N(C)c2ccccc2)cc1 [Compound 6c] | 9.5 ± 5.3 | 4.2 ± 0.5 | 2.5 ± 0.2 | 9.9 ± 3.1 | 4.2 ± 1.2 | > 30 | ~ 10 fold | 37.4 ± 0.3 | 11.4 ± 0.4% | 27.0 ± 0.7 | 23.5% and 23.5 ± 1.2 % | not caused by a significant cell cycle arrest in any phase | – | –
Cc1ccc(S(=O)(=O)NC(=Nc2ccc(/C=C/C(=O)c3c(O)cccc3OCc3ccccc3)cc2)N2CCCCC2)cc1 [Compound 6d] | > 30 | 28.5 ± 14.3 | 3.3 ± 0.6 | 6.6 ± 1.2 | 24.6 ± 5.4 | > 30 | – | – | – | – | – | – | – | –
Cc1ccc(S(=O)(=O)NC(=Nc2ccc(/C=C/C(=O)c3c(O)cccc3OCc3ccccc3)cc2)N2CCOCC2)cc1 [Compound 6e] | 5.4 ± 2.1 | 3.8 ± 1.1 | 3.2 ± 1.5 | 3.1 ± 0.5 | 2.3 ± 0.9 | 14.3 ± 5.7 | ~ 5 fold | 36.5 ± 2.3 | 27% and 27.3 ± 2.0 % | 23.6 ± 0.5 | 11.9% and 11.9 ± 0.2 % | induced an arrest at the G2-M phase | – | –
CCCCCCCCCCCCCCCCCCNC(=Nc1ccc(/C=C/C(=O)c2c(O)cccc2OCc2ccccc2)cc1)NS(=O)(=O)c1ccc(C)cc1 [Compound 6g] | > 30 | > 30 | > 30 | > 30 | > 30 | > 30 | – | – | – | – | – | – | not cytotoxic | –
CC(C)N(/C(=N/c1ccc(/C=C/C(=O)c2c(O)cccc2OCc2ccccc2)cc1)Nc1ccccc1)C(C)C [Compound 6h] | 10.6 ± 2.6 | 5.2 ± 0.9 | 4.3 ± 0.5 | 5.4 ± 0.2 | 14 ± 6.6 | 5.2 ± 1 | – | 53.7 ± 0.4 | 9.2 ± 0.5 % | 29.5 ± 0.3 | 7.2 ± 1.1 % | not caused by a significant cell cycle arrest in any phase | – | five-fold
O=C(/C=C/c1ccc(N=C(Nc2ccccc2)N2CCOCC2)cc1)c1c(O)cccc1OCc1ccccc1 [Compound 6j] | 8.6 ± 1.1 | 6.2 ± 1.7 | 1.8 ± 0.5 | 4.1 ± 0.5 | 11.7 ± 3.4 | 5.4 ± 0.8 | – | 51.3 ± 1.1 | 11.5 ± 0.1% | 32.0 ± 0.4 | 4.7 ± 0.6% | – | – | –
CN1CCN(C(=Nc2ccc(/C=C/C(=O)c3c(O)cccc3OCc3ccccc3)cc2)Nc2ccccc2)CC1 [Compound 6k] | 14 ± 1.1 | 11.4 ± 5.5 | 21.7 ± 6.5 | 24.8 ± 3.3 | 14 ± 5.1 | > 30 | – | – | – | – | – | – | – | –
COc1cccc2c1C(=O)c1c(O)c3c(c(O)c1C2=O)C[C@@](O)(C(=O)CO)C[C@@H]3O[C@H]1C[C@H](N)[C@H](O)[C@H](C)O1 [Doxorubicin, reference compound] | 0.1 | – | – | – | – | 0.3 ± 0.1 | – | – | – | – | – | – | – | –
COc1cc([C@@H]2c3cc4c(cc3[C@@H](O[C@@H]3O[C@@H]5CO[C@@H](C)O[C@H]5[C@H](O)[C@H]3O)[C@H]3COC(=O)[C@H]23)OCO4)cc(OC)c1O [Etoposide, reference compound] | 1.8 ± 0.2 | 0.6 ± 0.2 | 0.2 ± 0.1 | – | – | 9 ± 3 | – | – | – | – | – | – | – | –
